# According to patent publication US7772180B2, “Hepatitis C virus inhibitors” (Bristol-Myers Squibb Company, priority 2006, dated 2010):
# Read-outs that look alike come from different tables or passages of the source.
# What was measured:
# [1] = target: T1, HCV NS3/4A protease complex, BMS strain (UniProt P27958, species not given/STRAIN_BMS); assay: FRET peptide assay to monitor HCV NS3/4A proteolytic activity (BMS strain); format: biochemical, Hepatitis C virus (genotype 1a)
# T1 construct: other: NS3/4A BMS strain; activity range class; numeric values, unit not given; said of H77 and J4L6S; fused on or other part: A three-lysine solubilising tail at the C-terminus of NS4A; A His tag is implied by the pET21b vector and Ni-NTA purification; Both are printed for the H77 and J4L6S constructs and apply to BMS by inference
# T1 sequence (P27958 1027-1657, change not shown, one chain of several): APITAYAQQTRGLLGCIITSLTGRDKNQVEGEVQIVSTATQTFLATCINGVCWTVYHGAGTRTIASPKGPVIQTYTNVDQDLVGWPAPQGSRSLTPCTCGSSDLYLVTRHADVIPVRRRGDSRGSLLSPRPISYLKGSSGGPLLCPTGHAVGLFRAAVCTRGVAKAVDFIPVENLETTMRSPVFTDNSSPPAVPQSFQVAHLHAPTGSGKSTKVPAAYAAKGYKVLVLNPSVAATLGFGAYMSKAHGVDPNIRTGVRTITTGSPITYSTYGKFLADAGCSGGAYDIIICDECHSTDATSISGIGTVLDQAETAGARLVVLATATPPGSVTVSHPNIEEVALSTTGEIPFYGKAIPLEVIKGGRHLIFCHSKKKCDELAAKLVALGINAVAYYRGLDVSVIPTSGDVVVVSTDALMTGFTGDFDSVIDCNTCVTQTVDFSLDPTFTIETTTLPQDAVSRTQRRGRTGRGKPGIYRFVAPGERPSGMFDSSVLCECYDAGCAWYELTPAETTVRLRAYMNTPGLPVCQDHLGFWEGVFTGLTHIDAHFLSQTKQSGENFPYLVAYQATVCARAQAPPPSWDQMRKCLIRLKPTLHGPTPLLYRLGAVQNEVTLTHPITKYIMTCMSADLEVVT
# How it was run: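 Inhibition measured by real-time fluorescence increase as the protease cleaves RET S1 FRET depsipeptide (2 μM final). Enzyme: >90% pure BMS-strain (1a) NS3/4A at 2-3 nM final, or 300 pM with 50 μg/ml BSA for potent compounds. Buffer: 50 mM HEPES pH 7.5, 0.15 M NaCl, 0.1% Triton, 15% glycerol, 10 mM βME.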
# [2] = system: HCV replicon (strain 1b) in HUH-7 cells; assay: HCV replicon FRET assay; format: cell-based, Hepatitis C virus
# [3] = read-out: HCV Protease (IC50); NS3/4A BMS strain; numeric values, unit inferred
# [4] = Hepatitis C virus, Huh-7, read-out: HCV Pro Replicon (EC50), HCV replicon cell assay, numeric values, unit inferred
# [5] = read-out: HCV Protease (IC50); NS3/4A BMS strain; activity range class
# [6] = Hepatitis C virus, Huh-7, read-out: HCV Pro Replicon (EC50), HCV replicon cell assay, activity range class
# [7] = read-out: HCV Pro Replicon (EC50), HCV replicon cell assay, activity range class
SMILES,"IC50 [1, 5] [nM]","EC50 [2, 6] [nM]",further results
"C=C[C@@H]1C[C@]1(NC(=O)[C@@H]1C[C@@H](Oc2ncc(OC)c3ccc(Cl)cc23)CN1C(=O)C(Nc1ccc(C)nc1)C(C)(C)C)C(=O)NS(=O)(=O)C1CC1 (single isomer, unassigned) [Compound 26B]",–,–,"IC50 [1, 3]: 1300 nM; EC50 [2, 4]: 3190 nM"
"C=C[C@@H]1C[C@]1(NC(=O)[C@@H]1C[C@@H](Oc2ncc(OC)c3ccc(Cl)cc23)CN1C(=O)[C@@H](Nc1cccc(C(=O)OC(C)(C)C)c1)C(C)(C)C)C(=O)NS(=O)(=O)C1CC1 [210 first isomer, N-(3-(tert-butoxycarbonyl)phenyl)-3-methyl-L-valyl-(4R)-4-((7-chloro-4-methoxy-1-isoquinolinyl)oxy)-N-((1R,2S)-1-((cyclopropylsulfonyl)carbamoyl)-2-vinylcyclopropyl)-L-prolinamide]",0.6 to 20,3 to 100,–
"C=C[C@@H]1C[C@]1(NC(=O)[C@@H]1C[C@@H](Oc2ncc(OC)c3ccc(Cl)cc23)CN1C(=O)[C@@H](Nc1cccc(C(N)=O)c1)C(C)(C)C)C(=O)NS(=O)(=O)C1CC1 [217 first isomer, N-(3-carbamoylphenyl)-3-methyl-L-valyl-(4R)-4-((7-chloro-4-methoxy-1-isoquinolinyl)oxy)-N-((1R,2S)-1-((cyclopropylsulfonyl)carbamoyl)-2-vinylcyclopropyl)-L-prolinamide]",0.6 to 20,3 to 100,–
"C=C[C@@H]1C[C@]1(NC(=O)[C@@H]1C[C@@H](Oc2ncc(OC)c3ccc(Cl)cc23)CN1C(=O)[C@@H](Nc1cccc(S(N)(=O)=O)c1)C(C)(C)C)C(=O)NS(=O)(=O)C1CC1 [207 first isomer, 3-methyl-N-(3-sulfamoylphenyl)-L-valyl-(4R)-4-((7-chloro-4-methoxy-1-isoquinolinyl)oxy)-N-((1R,2S)-1-((cyclopropylsulfonyl)carbamoyl)-2-vinylcyclopropyl)-L-prolinamide]",0.6 to 20,3 to 100,–
"C=C[C@@H]1C[C@]1(NC(=O)[C@@H]1C[C@@H](Oc2nc(N(C)C)cc3c(OC)cccc23)CN1C(=O)C(Nc1cccc(C)n1)C(C)(C)C)C(=O)NS(=O)(=O)C1CC1 (single isomer, unassigned) [Compound 38A]",0.6 to 20,3 to 100,–
"C=CC1CC1(NC(=O)C1CC(Oc2ncc(OC)c3ccc(Cl)cc23)CN1C(=O)C(Nc1ccccc1)C(C)(C)C)C(=O)NS(=O)(=O)C1CC1 (single isomer, unassigned; isomer 3) [213 first isomer]",> 200,–,"EC50 [2, 7]: 100 to 1000 nM"
"C=C[C@@H]1C[C@]1(NC(=O)[C@@H]1C[C@@H](Oc2ncc(OC)c3ccc(Cl)cc23)CN1C(=O)[C@@H](Nc1cccc(C(=O)O)c1)C(C)(C)C)C(=O)NS(=O)(=O)C1CC1 [211 first isomer, N-(3-carboxyphenyl)-3-methyl-L-valyl-(4R)-4-((7-chloro-4-methoxy-1-isoquinolinyl)oxy)-N-((1R,2S)-1-((cyclopropylsulfonyl)carbamoyl)-2-vinylcyclopropyl)-L-prolinamide]",0.6 to 20,3 to 100,–
"C=C[C@@H]1C[C@]1(NC(=O)[C@@H]1C[C@@H](Oc2ncc(OC)c3ccc(Cl)cc23)CN1C(=O)C(Nc1cccc(C)n1)C(C)(C)C)C(=O)NS(=O)(=O)C1CC1 (single isomer, unassigned) [28 second isomer]",20 to 200,–,"EC50 [2, 7]: 100 to 1000 nM"
"C=C[C@@H]1C[C@]1(NC(=O)[C@@H]1C[C@@H](Oc2ncc(OC)c3ccc(Cl)cc23)CN1C(=O)[C@@H](Nc1cncc(Cl)c1)C(C)(C)C)C(=O)NS(=O)(=O)C1CC1 [Compound 33, N-(5-chloro-3-pyridinyl)-3-methylvalyl-(4R)-4-((7-chloro-4-methoxy-1-isoquinolinyl)oxy)-N-((1R,2S)-1-((cyclopropylsulfonyl)carbamoyl)-2-vinylcyclopropyl)-L-prolinamide]",–,–,"IC50 [1, 3]: 2 nM; EC50 [2, 4]: 8.19 nM"
"C=C[C@@H]1C[C@]1(NC(=O)[C@@H]1C[C@@H](Oc2nccc3cc(OC)ccc23)CN1C(=O)C(Nc1cc(C(F)(F)F)ccn1)C(C)C)C(=O)NS(=O)(=O)C1CC1 (single isomer, unassigned) [Compound 9]",0.6 to 20,3 to 100,–
"C=C[C@@H]1C[C@]1(NC(=O)[C@@H]1C[C@@H](Oc2ncc(OC)c3ccc(Cl)cc23)CN1C(=O)C(Nc1cncc(C)c1)C(C)(C)C)C(=O)NS(=O)(=O)C1CC1 (stereo partly drawn) [Compound 25, 3-methyl-N-(5-methyl-3-pyridinyl)valyl-(4R)-4-((7-chloro-4-methoxy-1-isoquinolinyl)oxy)-N-((1R,2S)-1-((cyclopropylsulfonyl)carbamoyl)-2-vinylcyclopropyl)-L-prolinamide]",0.6 to 20,3 to 100,–
"C=C[C@@H]1C[C@]1(NC(=O)[C@@H]1C[C@@H](Oc2ncc(OC)c3ccc(Cl)cc23)CN1C(=O)[C@H](CC)Nc1nsnc1OCC)C(=O)NS(=O)(=O)C1CC1 [Compound 233A, (4R)-4-((7-chloro-4-methoxy-1-isoquinolinyl)oxy)-N-((1R,2S)-1-((cyclopropylsulfonyl)carbamoyl)-2-vinylcyclopropyl)-1-((2S)-2-((4-ethoxy-1,2,5-thiadiazol-3-yl)amino)butanoyl)-L-prolinamide]",20 to 200,100 to 1000,–
"C=C[C@@H]1C[C@]1(NC(=O)[C@@H]1C[C@@H](Oc2nccc3cc(OC)ccc23)CN1C(=O)[C@@H](Nc1cc(C)cc(C)n1)C(C)C)C(=O)NS(=O)(=O)C1CC1 [Compound 1A, N-(4,6-dimethyl-2-pyridinyl)-L-valyl-(4R)—N-((1R,2S)-1-((cyclopropylsulfonyl)carbamoyl)-2-vinylcyclopropyl)-4-((6-methoxy-1-isoquinolinyl)oxy)-L-prolinamide]",0.6 to 20,3 to 100,–
C=C[C@@H]1C[C@]1(NC(=O)[C@@H]1C[C@@H](Oc2ncc(OC)c3ccc(Cl)cc23)CN1C(=O)C(Nc1cccc(C#N)c1)C(C)(C)C)C(=O)NS(=O)(=O)C1CC1 (some centres unmarked) [Compound 203A],–,–,"IC50 [1, 3]: 4 nM; EC50 [2, 4]: 1.54 nM"
"C=CC1CC1(NC(=O)C1CC(Oc2ncc(OC)c3ccc(Cl)cc23)CN1C(=O)C(Nc1ccccc1)C(C)(C)C)C(=O)NS(=O)(=O)C1CC1 (single isomer, unassigned; isomer 3) [213 second isomer]",0.6 to 20,–,"EC50 [2, 7]: 3 to 100 nM"
"C=C[C@@H]1C[C@]1(NC(=O)[C@@H]1C[C@@H](Oc2ncc(OC)c3ccc(Cl)cc23)CN1C(=O)C(Nc1cc(C)c([N+](=O)[O-])cn1)C(C)(C)C)C(=O)NS(=O)(=O)C1CC1 (stereo partly drawn) [Compound 23, 3-methyl-N-(4-methyl-5-nitro-2-pyridinyl)valyl-(4R)-4-((7-chloro-4-methoxy-1-isoquinolinyl)oxy)-N-((1R,2S)-1-((cyclopropylsulfonl)carbamoyl)-2-vinylcyclopropyl)-L-prolinamide]",0.6 to 20,3 to 100,–
C=C[C@@H]1C[C@]1(NC(=O)[C@@H]1C[C@@H](Oc2ncc(OC)c3ccc(Cl)cc23)CN1C(=O)C(Nc1ccc(C(=O)OC(C)(C)C)cc1)C(C)(C)C)C(=O)NS(=O)(=O)C1CC1 (stereo partly drawn) [204 second isomer],> 200,–,"EC50 [2, 7]: > 1000 nM"
"C=C[C@@H]1C[C@]1(NC(=O)[C@@H]1C[C@@H](Oc2ncc(OC)c3ccc(Cl)cc23)CN1C(=O)[C@@H](Nc1ccc(C(=O)NC(C)(C)c2ccccc2)cc1)C(C)(C)C)C(=O)NS(=O)(=O)C1CC1 [Compound 222A, 3-methyl-N-(4-((1-methyl-1-phenylethyl)carbamoyl)phenyl)-L-valyl-(4R)-4-((7-chloro-4-methoxy-1-isoquinolinyl)oxy)-N-((1R2S)-1-((cyclopropylsulfonl)carbamoyl)-2-vinylcyclopropyl)-L-prolinamide]",–,–,"IC50 ([1]; NS3/4A BMS strain; activity range class; read-out: HCV Protease (IC50)): 0.6 to 20 nM; EC50 ([2]; HCV replicon cell assay, activity range class, read-out: HCV Pro Replicon (EC50)): 3 to 100 nM"
"C=C[C@@H]1C[C@]1(NC(=O)[C@@H]1C[C@@H](Oc2nccc3cc(OC)ccc23)CN1C(=O)C(Nc1ccc(C(F)(F)F)cn1)C(C)C)C(=O)NS(=O)(=O)C1CC1 (single isomer, unassigned) [Compound 2]",20 to 200,100 to 1000,–
"C=C[C@@H]1C[C@]1(NC(=O)[C@@H]1C[C@@H](Oc2ncc(OC)c3ccc(Cl)cc23)CN1C(=O)[C@H](Nc1ccc(C#N)cc1)C(C)(C)C)C(=O)NS(=O)(=O)C1CC1 [205 second isomer, N-(4-cyanophenyl)-3-methyl-D-valyl-(4R)-4-((7-chloro-4-methoxy-1-isoquinolinyl)oxy)-N-((1R,2S)-1-((cyclopropylsulfonyl)carbamoyl)-2-vinylcyclopropyl)-L-prolinamide]",> 200,3 to 100,–
"C=C[C@@H]1C[C@]1(NC(=O)[C@@H]1C[C@@H](Oc2ncc(OC)c3ccc(Cl)cc23)CN1C(=O)[C@@H](Nc1cccc(C(=O)OC(C)C)c1)C(C)(C)C)C(=O)NS(=O)(=O)C1CC1 [231 first isomer, N-(3-(isopropoxycarbonyl)phenyl)-3-methyl-L-valyl-(4R)-4-((7-chloro-4-methoxy-1-isoquinolinyl)oxy)-N-((1R,2S)-1-((cyclopropylsulfonyl)carbamoyl)-2-vinylcyclopropyl)-L-prolinamide]",0.6 to 20,3 to 100,–
"C=C[C@@H]1C[C@]1(NC(=O)[C@@H]1C[C@@H](Oc2nc(N(C)C)cc3cc(OC)ccc23)CN1C(=O)C(Nc1ccccc1)C(C)(C)C)C(=O)NS(=O)(=O)C1CC1 (single isomer, unassigned) [19 first isomer]",0.6 to 20,3 to 100,–
